Results: patent US9120756B2, “Substituted phenylureas and phenylamides as vanilloid receptor ligands” (Gruenenthal GmbH, priority 2009, dated 2015)

How the values were obtained:
hVR1 = hVR1 (Homo sapiens (Human), UniProt Q8NER1); experiment: FLIPR Ca2+ influx assay on CHO K1 cells transfected with the VR1 gene, capsaicin stimulus (method II); format: cell-based; conditions: capsaicin (Cap), read-out: Ki (human being) [nM] Cap
[1] = target: rat-species vanilloid receptor 1 (VR1/TRPV1) (Rattus norvegicus (Rat), UniProt O35433); experiment: FLIPR Ca2+ influx assay on rat dorsal root ganglia cells, capsaicin stimulus (method I); format: cell-based; conditions: capsaicin (Cap)
rat-species vanilloid receptor 1 (VR1/TRPV1), sequence (O35433 whole entry): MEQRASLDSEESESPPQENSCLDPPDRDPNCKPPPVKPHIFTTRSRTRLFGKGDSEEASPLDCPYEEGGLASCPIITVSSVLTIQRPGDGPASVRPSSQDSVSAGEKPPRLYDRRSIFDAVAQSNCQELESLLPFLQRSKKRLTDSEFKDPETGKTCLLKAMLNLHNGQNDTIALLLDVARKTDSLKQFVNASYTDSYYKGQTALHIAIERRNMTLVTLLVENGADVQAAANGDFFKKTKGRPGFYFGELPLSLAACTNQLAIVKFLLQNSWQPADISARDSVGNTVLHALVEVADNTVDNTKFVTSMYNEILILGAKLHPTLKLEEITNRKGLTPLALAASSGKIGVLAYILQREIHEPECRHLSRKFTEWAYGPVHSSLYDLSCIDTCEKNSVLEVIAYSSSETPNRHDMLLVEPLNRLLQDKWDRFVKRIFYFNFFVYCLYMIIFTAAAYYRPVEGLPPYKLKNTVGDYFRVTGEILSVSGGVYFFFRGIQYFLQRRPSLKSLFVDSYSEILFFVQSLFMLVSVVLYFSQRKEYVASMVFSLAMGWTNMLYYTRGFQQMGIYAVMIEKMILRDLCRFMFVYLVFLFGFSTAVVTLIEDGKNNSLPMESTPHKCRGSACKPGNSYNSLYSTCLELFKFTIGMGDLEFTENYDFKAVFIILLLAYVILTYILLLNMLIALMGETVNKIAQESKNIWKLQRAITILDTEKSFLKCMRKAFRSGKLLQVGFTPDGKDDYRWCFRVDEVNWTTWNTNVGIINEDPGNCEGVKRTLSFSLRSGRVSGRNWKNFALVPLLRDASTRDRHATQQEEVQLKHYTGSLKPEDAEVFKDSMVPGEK

hVR1, sequence (Q8NER1 whole entry): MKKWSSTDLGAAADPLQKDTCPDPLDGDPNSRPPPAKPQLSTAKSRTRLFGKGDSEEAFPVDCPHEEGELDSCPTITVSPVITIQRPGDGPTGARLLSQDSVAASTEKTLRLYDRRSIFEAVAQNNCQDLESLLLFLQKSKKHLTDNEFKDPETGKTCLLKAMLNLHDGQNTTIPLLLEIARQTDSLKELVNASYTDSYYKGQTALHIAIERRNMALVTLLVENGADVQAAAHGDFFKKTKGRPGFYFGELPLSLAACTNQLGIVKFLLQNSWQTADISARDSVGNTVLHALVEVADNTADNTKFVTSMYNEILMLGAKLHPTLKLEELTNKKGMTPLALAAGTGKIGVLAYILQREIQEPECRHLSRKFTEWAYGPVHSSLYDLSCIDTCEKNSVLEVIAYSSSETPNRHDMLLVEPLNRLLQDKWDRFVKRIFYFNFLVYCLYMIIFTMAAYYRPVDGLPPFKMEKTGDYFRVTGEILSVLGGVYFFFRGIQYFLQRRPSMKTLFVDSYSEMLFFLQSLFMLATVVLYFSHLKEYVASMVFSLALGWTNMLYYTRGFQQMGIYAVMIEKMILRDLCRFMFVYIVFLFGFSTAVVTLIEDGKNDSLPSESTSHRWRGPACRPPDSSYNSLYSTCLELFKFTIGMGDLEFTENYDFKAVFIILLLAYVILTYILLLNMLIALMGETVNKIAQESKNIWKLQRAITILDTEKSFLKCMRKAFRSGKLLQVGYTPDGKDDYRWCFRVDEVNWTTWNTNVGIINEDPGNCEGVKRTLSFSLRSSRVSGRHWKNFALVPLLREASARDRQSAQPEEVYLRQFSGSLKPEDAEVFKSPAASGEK

Ki (hVR1): 51.8 nM
Ki [1]: 85 nM
SMILES: O=C(Cc1cccc(F)c1)NCc1cc(C(F)(F)F)nn1-c1cccc(Cl)c1 [Example 74, N-((1-(3-chlorophenyl)-3-(trifluoromethyl)-1H-pyrazol-5-yl)methyl)-2-(3-fluorophenyl)acetamide]
